# Data as given in PubChem BioAssay (NCI).
#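 Where inhibition never reached the appropriate level, the endpoint shown equals the highest concentration tested. Otherwise, values were interpolated linearly from a five-concentration, 48-hour dose response in 96-well plates. TGI denotes the concentration required for complete inhibition of growth.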
# Key:
# Assay in all cases: NCI tumour cell line growth inhibition, 48 h
# 786-0 renal = system: 786-0 renal
# A498 renal = system: A498 renal
# A549 NSCLC = system: A549 NSCLC
# ACHN renal = system: ACHN renal
# BT-549 breast = system: BT-549 breast
# CAKI-1 renal = system: CAKI-1 renal
# CCRF-CEM leukemia = system: CCRF-CEM leukemia
# COLO 205 colon = system: COLO 205 colon
# DLD-1 colon = system: DLD-1 colon
# DMS 114 small cell lung = system: DMS 114 small cell lung
# DMS 273 small cell lung = system: DMS 273 small cell lung
# DU-145 prostate = system: DU-145 prostate
# EKVX NSCLC = system: EKVX NSCLC
# HCC-2998 colon = system: HCC-2998 colon
# HCT-116 colon = system: HCT-116 colon
# HCT-15 colon = system: HCT-15 colon
# HL-60(TB) leukemia = system: HL-60(TB) leukemia
# HOP-18 NSCLC = system: HOP-18 NSCLC
# HOP-62 NSCLC = system: HOP-62 NSCLC
# HOP-92 NSCLC = system: HOP-92 NSCLC
# HS 578T breast = system: HS 578T breast
# HT29 colon = system: HT29 colon
# IGROV1 ovarian = system: IGROV1 ovarian
# K-562 leukemia = system: K-562 leukemia
# KM12 colon = system: KM12 colon
# KM20L2 colon = system: KM20L2 colon
# LOX IMVI melanoma = system: LOX IMVI melanoma
# LXFL 529 NSCLC = system: LXFL 529 NSCLC
# M14 melanoma = system: M14 melanoma
# M19-MEL melanoma = system: M19-MEL melanoma
# MALME-3M melanoma = system: MALME-3M melanoma
# MCF7 breast = system: MCF7 breast
# MDA-MB-231 breast = system: MDA-MB-231 breast
# MDA-MB-435 = system: MDA-MB-435
# MDA-N = system: MDA-N
# MOLT-4 leukemia = system: MOLT-4 leukemia
# NCI-H226 lung = system: NCI-H226 lung
# NCI-H23 lung = system: NCI-H23 lung
# NCI-H460 lung = system: NCI-H460 lung
# NCI-H522 lung = system: NCI-H522 lung
# NCI/ADR-RES ovarian = system: NCI/ADR-RES ovarian
# OVCAR-3 ovarian = system: OVCAR-3 ovarian
# OVCAR-4 ovarian = system: OVCAR-4 ovarian
# OVCAR-5 ovarian = system: OVCAR-5 ovarian
# OVCAR-8 ovarian = system: OVCAR-8 ovarian
# PC-3 prostate = system: PC-3 prostate
# RPMI-8226 leukemia = system: RPMI-8226 leukemia
# RXF 393 renal = system: RXF 393 renal
# RXF-631 renal = system: RXF-631 renal
# SF-268 CNS = system: SF-268 CNS
# SF-295 CNS = system: SF-295 CNS
# SF-539 CNS = system: SF-539 CNS
# SK-MEL-2 melanoma = system: SK-MEL-2 melanoma
# SK-MEL-28 melanoma = system: SK-MEL-28 melanoma
# SK-MEL-5 melanoma = system: SK-MEL-5 melanoma
# SK-OV-3 ovarian = system: SK-OV-3 ovarian
# SN12C renal = system: SN12C renal
# SNB-19 CNS = system: SNB-19 CNS
# SNB-75 CNS = system: SNB-75 CNS
# SNB-78 CNS = system: SNB-78 CNS
# SR leukemia = system: SR leukemia
# SW-620 colon = system: SW-620 colon
# T-47D breast = system: T-47D breast
# TK-10 renal = system: TK-10 renal
# U251 CNS = system: U251 CNS
# UACC-257 melanoma = system: UACC-257 melanoma
# UACC-62 melanoma = system: UACC-62 melanoma
# UO-31 renal = system: UO-31 renal
# XF 498 CNS = system: XF 498 CNS
# P388 leukemia = system: P388 leukemia
# P388/ADR leukemia = system: P388/ADR leukemia
# SN12K1 renal = system: SN12K1 renal
smiles,measurement,setting,value
CN1C(c2ccccc2)CC(=NOCc2ccccc2)CC1c1ccccc1 (stereo not given),TGI,786-0 renal,53.7 µM
same,TGI,A498 renal,68.8 µM
same,TGI,A549 NSCLC,43 µM
same,TGI,ACHN renal,69.1 µM
same,TGI,BT-549 breast,30.6 µM
same,TGI,CAKI-1 renal,> 80 µM
same,TGI,CCRF-CEM leukemia,70.8 µM
same,TGI,COLO 205 colon,88.6 µM
same,TGI,DLD-1 colon,> 100 µM
same,TGI,DMS 114 small cell lung,33.1 µM
same,TGI,DMS 273 small cell lung,> 100 µM
same,TGI,DU-145 prostate,> 100 µM
same,TGI,EKVX NSCLC,> 69.3 µM
same,TGI,HCC-2998 colon,> 100 µM
same,TGI,HCT-116 colon,37.6 µM
same,TGI,HCT-15 colon,49.2 µM
same,TGI,HL-60(TB) leukemia,48.8 µM
same,TGI,HOP-18 NSCLC,> 100 µM
same,TGI,HOP-62 NSCLC,> 73.3 µM
same,TGI,HOP-92 NSCLC,81 µM
same,TGI,HS 578T breast,> 73.3 µM
same,TGI,HT29 colon,62.2 µM
same,TGI,IGROV1 ovarian,62.1 µM
same,TGI,K-562 leukemia,44.3 µM
same,TGI,KM12 colon,47.9 µM
same,TGI,KM20L2 colon,> 100 µM
same,TGI,LOX IMVI melanoma,29.9 µM
same,TGI,LXFL 529 NSCLC,30.8 µM
same,TGI,M14 melanoma,> 78 µM
same,TGI,M19-MEL melanoma,> 100 µM
same,TGI,MALME-3M melanoma,> 87.8 µM
same,TGI,MCF7 breast,> 56.8 µM
same,TGI,MDA-MB-231 breast,> 100 µM
same,TGI,MDA-MB-435,39.2 µM
same,TGI,MDA-N,> 56.3 µM
same,TGI,MOLT-4 leukemia,71.2 µM
same,TGI,NCI-H226 lung,84.8 µM
same,TGI,NCI-H23 lung,71.5 µM
same,TGI,NCI-H460 lung,39.9 µM
same,TGI,NCI-H522 lung,56 µM
same,TGI,NCI/ADR-RES ovarian,42.4 µM
same,TGI,OVCAR-3 ovarian,58.7 µM
same,TGI,OVCAR-4 ovarian,48.9 µM
same,TGI,OVCAR-5 ovarian,> 100 µM
same,TGI,OVCAR-8 ovarian,44.9 µM
same,TGI,PC-3 prostate,> 66.3 µM
same,TGI,RPMI-8226 leukemia,> 100 µM
same,TGI,RXF 393 renal,> 84.7 µM
same,TGI,RXF-631 renal,> 61.9 µM
same,TGI,SF-268 CNS,50.4 µM
same,TGI,SF-295 CNS,> 74.8 µM
same,TGI,SF-539 CNS,> 75.6 µM
same,TGI,SK-MEL-2 melanoma,> 95.4 µM
same,TGI,SK-MEL-28 melanoma,> 76.3 µM
same,TGI,SK-MEL-5 melanoma,70.6 µM
same,TGI,SK-OV-3 ovarian,> 96.9 µM
same,TGI,SN12C renal,62 µM
same,TGI,SNB-19 CNS,> 56.2 µM
same,TGI,SNB-75 CNS,62.1 µM
same,TGI,SNB-78 CNS,> 100 µM
same,TGI,SR leukemia,87.1 µM
same,TGI,SW-620 colon,> 75.4 µM
same,TGI,T-47D breast,36 µM
same,TGI,TK-10 renal,70.9 µM
same,TGI,U251 CNS,55.2 µM
same,TGI,UACC-257 melanoma,> 97 µM
same,TGI,UACC-62 melanoma,> 76.3 µM
same,TGI,UO-31 renal,> 73.7 µM
same,TGI,XF 498 CNS,> 100 µM
C#CC[N+](CCO)(CCO)CCCCCCCCCCCCCCCCCC,TGI,A498 renal,37.8 µM
same,TGI,A549 NSCLC,36.5 µM
same,TGI,CAKI-1 renal,15.9 µM
same,TGI,COLO 205 colon,27.1 µM
same,TGI,DLD-1 colon,24.5 µM
same,TGI,DMS 114 small cell lung,33 µM
same,TGI,DMS 273 small cell lung,22.6 µM
same,TGI,EKVX NSCLC,51.1 µM
same,TGI,HCC-2998 colon,23.7 µM
same,TGI,HCT-116 colon,27.4 µM
same,TGI,HCT-15 colon,50.8 µM
same,TGI,HL-60(TB) leukemia,3.43 µM
same,TGI,HOP-18 NSCLC,22.1 µM
same,TGI,HOP-62 NSCLC,25.5 µM
same,TGI,HOP-92 NSCLC,5.2 µM
same,TGI,HT29 colon,20.1 µM
same,TGI,IGROV1 ovarian,5.13 µM
same,TGI,K-562 leukemia,> 41.2 µM
same,TGI,KM12 colon,8.97 µM
same,TGI,KM20L2 colon,25.8 µM
same,TGI,LOX IMVI melanoma,> 48.3 µM
same,TGI,M19-MEL melanoma,15 µM
same,TGI,MALME-3M melanoma,32.3 µM
same,TGI,MCF7 breast,36.5 µM
same,TGI,MOLT-4 leukemia,9.7 µM
same,TGI,NCI-H226 lung,29.2 µM
same,TGI,NCI-H23 lung,30.1 µM
same,TGI,NCI-H460 lung,27.9 µM
same,TGI,NCI-H522 lung,21.7 µM
same,TGI,NCI/ADR-RES ovarian,39.5 µM
same,TGI,OVCAR-3 ovarian,35.9 µM
same,TGI,OVCAR-4 ovarian,25 µM
same,TGI,OVCAR-5 ovarian,32.5 µM
same,TGI,OVCAR-8 ovarian,43.1 µM
same,TGI,P388 leukemia,2.5 µM
same,TGI,P388/ADR leukemia,> 43.7 µM
same,TGI,RPMI-8226 leukemia,> 29 µM
same,TGI,RXF 393 renal,6.64 µM
same,TGI,SF-268 CNS,26.2 µM
same,TGI,SF-295 CNS,24.1 µM
same,TGI,SF-539 CNS,30.2 µM
same,TGI,SK-MEL-2 melanoma,31.8 µM
same,TGI,SK-MEL-28 melanoma,30.6 µM
same,TGI,SK-MEL-5 melanoma,32.1 µM
same,TGI,SK-OV-3 ovarian,36.1 µM
same,TGI,SN12C renal,39.3 µM
same,TGI,SN12K1 renal,30 µM
same,TGI,SNB-19 CNS,20.7 µM
same,TGI,SNB-75 CNS,15.9 µM
same,TGI,SNB-78 CNS,28.4 µM
same,TGI,SW-620 colon,34.9 µM
same,TGI,U251 CNS,27.5 µM
same,TGI,UACC-257 melanoma,31 µM
same,TGI,UACC-62 melanoma,25.4 µM
same,TGI,UO-31 renal,34.9 µM
same,TGI,XF 498 CNS,17.3 µM
